From paper PMC8177813 (Journal of pharmaceutical sciences, 2020) come the findings set out here.

pKi: −log10 of the molar value. Where a name gives a salt, the structure may show the parent alone. Read-outs that look alike come from different tables or passages of the source. Where only a bound is given, the exact number is not on record here.

Data set [1] addresses T1, human OAT3 (Homo sapiens, UniProt Q8TCC7).
T1 sequence (Q8TCC7 1-542): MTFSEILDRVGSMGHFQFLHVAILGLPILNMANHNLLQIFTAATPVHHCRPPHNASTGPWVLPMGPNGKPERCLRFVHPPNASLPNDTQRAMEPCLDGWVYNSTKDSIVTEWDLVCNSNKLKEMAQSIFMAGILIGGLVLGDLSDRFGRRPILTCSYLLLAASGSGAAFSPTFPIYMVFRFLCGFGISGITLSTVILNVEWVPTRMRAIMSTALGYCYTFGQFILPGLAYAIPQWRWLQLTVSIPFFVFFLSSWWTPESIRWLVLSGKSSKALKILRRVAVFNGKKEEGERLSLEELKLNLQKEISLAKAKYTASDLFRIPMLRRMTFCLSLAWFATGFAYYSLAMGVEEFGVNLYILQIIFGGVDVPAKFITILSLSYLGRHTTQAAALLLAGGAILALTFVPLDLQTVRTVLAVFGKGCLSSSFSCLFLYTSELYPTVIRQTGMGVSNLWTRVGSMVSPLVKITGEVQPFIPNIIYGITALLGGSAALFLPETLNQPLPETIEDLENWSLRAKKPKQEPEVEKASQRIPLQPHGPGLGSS
As to the kind of experiment: cell-based.

Another data set has as its target T2, human OAT1 (Homo sapiens, UniProt Q4U2R8).
T2 sequence (Q4U2R8 1-563): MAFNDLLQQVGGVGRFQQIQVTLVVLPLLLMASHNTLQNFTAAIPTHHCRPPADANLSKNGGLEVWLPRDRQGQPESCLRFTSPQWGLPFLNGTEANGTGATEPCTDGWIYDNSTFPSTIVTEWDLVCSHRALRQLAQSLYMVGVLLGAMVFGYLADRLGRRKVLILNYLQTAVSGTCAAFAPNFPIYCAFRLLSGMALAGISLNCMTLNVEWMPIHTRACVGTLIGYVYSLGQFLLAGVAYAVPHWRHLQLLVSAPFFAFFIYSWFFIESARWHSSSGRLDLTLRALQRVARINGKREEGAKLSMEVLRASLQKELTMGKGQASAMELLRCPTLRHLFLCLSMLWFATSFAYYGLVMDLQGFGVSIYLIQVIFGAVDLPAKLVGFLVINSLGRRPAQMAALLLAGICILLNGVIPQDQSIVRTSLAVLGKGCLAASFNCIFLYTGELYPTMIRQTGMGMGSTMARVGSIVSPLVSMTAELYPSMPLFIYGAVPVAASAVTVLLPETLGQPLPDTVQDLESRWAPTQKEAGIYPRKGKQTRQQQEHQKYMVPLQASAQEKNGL
As to the kind of experiment: Inhibition of OAT1-mediated 6-carboxyfluorescein.

Data set [2] addresses T1, human OAT3. Put plainly: Inhibition of OAT3-mediated 6-carboxyfluorescein.

A word on the pKi: it is −log10 of the Ki, conventionally taken in molar units. Turning to `CCc1ccc(CCOc2ccc(CC3SC(=O)NC3=O)cc2)nc1` (centres unmarked) [Pioglitazone, reference compound], the negative logarithm of the Ki (pKi) was 5.99 on human OAT3 [1] and 5.20 on human OAT1.
In the case of `CC(=O)CC(c1ccccc1)c1c(O)c2ccccc2oc1=O` (centres unmarked) [Warfarin, reference compound], the pKi at human OAT1 is 4.80; at human OAT3 [2], 5.51.
In the case of 4-Hydroxy flurbiprofen, the negative-log Ki (pKi) on human OAT1 (read-out: Ki (OAT1)) was 5.80; at human OAT3 [2] (read-out: Ki (OAT3)), 5.86.
On to `COc1ccc(Cl)cc1C(=O)NCCc1ccc(S(=O)(=O)NC(=O)NC2CCCCC2)cc1` [Glyburide, reference compound], for which the negative logarithm of the Ki (pKi) on human OAT3 [1] is 6.68; at human OAT1, 5.24.
With `CC(C(=O)O)c1cccc(C(=O)c2ccccc2)c1` (centres unmarked) [Ketoprofen, reference compound], the pKi at human OAT1 is 5.76; at human OAT3 [2], 5.79.
As to `Cc1cnc(NC(=O)C2=C(O)c3ccccc3S(=O)(=O)N2C)s1` [Meloxicam, reference compound], the pKi at human OAT3 [1] was 6.27; at human OAT1 it was 5.16.
Take `Cc1ccc(C(=O)c2ccc(CC(=O)O[C@@H]3O[C@H](C(=O)O)[C@@H](O)[C@H](O)[C@H]3O)n2C)cc1` [Tolmetin β-D-glucuronide]: the negative logarithm of the Ki (pKi) on human OAT1 (read-out: Ki (OAT1)) was 5.14; on human OAT3 [2] (read-out: Ki (OAT3)), 5.53.
On the same counts, the results for `Cc1c(CC(=O)O)c2cc(O)ccc2n1C(=O)c1ccc(Cl)cc1` [O-desmethyl indomethacin] are 5.79 and 6.57.
For the molecule `O=C(O)Cc1ccccc1Nc1c(Cl)cc(O)cc1Cl` [4-Hydroxy diclofenac], the pKi is 6.32 at human OAT1 (read-out: Ki (OAT1)) and 5.69 on human OAT3 [2] (read-out: Ki (OAT3)).
The like results for `CN(CCOc1ccc(CC2SC(=O)NC2=O)cc1)c1ccc(OS(=O)(=O)O)cn1` (centres unmarked) [5-OH-rosiglitazone sulfate] were, in that order, 4.47 and 5.88.
As for `CC(=O)c1ccc(CCOc2ccc(CC3SC(=O)NC3=O)cc2)nc1` (centres unmarked) [Keto pioglitazone], the pKi at human OAT1 (read-out: Ki (OAT1)) was 4.90; at human OAT3 [2] (read-out: Ki (OAT3)), 6.14.
Regarding `C[C@H](C(=O)O)c1ccc2cc(O)ccc2c1` [(S)-O-desmethyl naproxen], the pKi at human OAT1 (read-out: Ki (OAT1)) is 5.33; at human OAT3 [2] (read-out: Ki (OAT3)), 5.46.
As to `CN1C(C(=O)Nc2ncc(C(=O)O)s2)=C(O)c2ccccc2S1(=O)=O` [5-Carboxy-meloxicam], the negative-log Ki (pKi) is 4.71 on human OAT1 (read-out: Ki (OAT1)) and 6.15 at human OAT3 [2] (read-out: Ki (OAT3)).
As to `COc1ccc(Cl)cc1C(=O)NCCc1ccc(S(=O)(=O)NC(=O)N[C@H]2CCC[C@@H](O)C2)cc1` (relative stereo) [3-cis-hydroxycyclohexyl glyburide], the pKi at human OAT1 (read-out: Ki (OAT1), HEK293 cells stably transfected with OAT1, 2 μM 6CF, 3 min, 37 °C, […]) is 5.00; at human OAT3 [2] (read-out: Ki (OAT3)), 6.09.
`COc1ccc2c(c1)c(CC(=O)O)c(C)n2C(=O)c1ccc(Cl)cc1` [Indomethacin] had a negative-log Ki (pKi) at human OAT3 [1] of 6.96.
`COc1ccc2cc([C@H](C)C(=O)O[C@@H]3O[C@H](C(=O)O)[C@@H](O)[C@H](O)[C@H]3O)ccc2c1` [(S)-naproxen acyl-β-D-glucuronide]: the pKi was < 3.70 on human OAT1 (read-out: Ki (OAT1)) and 5.27 on human OAT3 [2] (read-out: Ki (OAT3)).
Regarding `O=C1NC(=O)C(Cc2ccc(OCCNc3ccccn3)cc2)S1` (centres unmarked) [N-desmethyl rosiglitazone], the results for the negative-log Ki (pKi) on human OAT1 (read-out: Ki (OAT1)) and on human OAT3 [2] (read-out: Ki (OAT3)) were 4.48 and 5.94, respectively.
Turning to `O=c1n(CCCN2CCN(c3ccc(O)c(Cl)c3)CC2)nc2ccccn12` [4-hydroxy-trazodone], the values for the pKi on human OAT1 (read-out: Ki (OAT1)) and on human OAT3 [2] (read-out: Ki (OAT3)) were < 3.70 and 4.77, respectively.
As to `CC(=O)C[C@@H](c1ccccc1)c1c(O)c2ccc(O)cc2oc1=O` [(S)-7-hydroxy warfarin], the pKi on human OAT1 (read-out: Ki (OAT1)) is 4.84; on human OAT3 [2] (read-out: Ki (OAT3)), 5.71.
On the same counts, the results for `CN(CCOc1ccc(CC2SC(=O)NC2=O)cc1)c1ccc(O[C@@H]2O[C@H](C(=O)O)[C@@H](O)[C@H](O)[C@H]2O)cn1` (stereo partly drawn) [5-Hydroxy Rosiglitazone β-D-Glucuronide] are < 3.70 and < 3.70.
On the same counts, the results for `Cc1ccc(NC(=O)c2ccc(CN3CC[N+](C)([O-])CC3)cc2)cc1Nc1nccc(-c2cccnc2)n1` [Imatinib (piperidine)-4-oxide] are < 3.70 and 4.19.
